Data set [1] concerns the target Metabotropic glutamate receptor 5 (Homo sapiens, UniProt P41594). Briefly: Inhibition of glutamate-induced calcium influx in human mGluR5d by FLIPR. Type of data set: functional.
Data set [2] deals with Metabotropic glutamate receptor 5 (Rattus norvegicus, UniProt P31424). Briefly: Displacement of [3H]MPEP from mGluR5d in rat brain membrane. The format is cell membranes. A general note: In a radioligand displacement assay an active substance lowers the binding of a labelled ligand.
The species named for data set [3] is Homo sapiens. Briefly: Clearance in human. The format is ADME, organism-based. The following applies: in vivo.
The species entered for data set [4] is Rattus norvegicus. In words: Clearance in rat. The format is ADME, organism-based. Particulars: in vivo; call rule not given here.

The IC50 is the midpoint of a concentration-inhibition curve.

Sequence of Metabotropic glutamate receptor 5 (Homo sapiens, UniProt P41594) (P41594 whole entry): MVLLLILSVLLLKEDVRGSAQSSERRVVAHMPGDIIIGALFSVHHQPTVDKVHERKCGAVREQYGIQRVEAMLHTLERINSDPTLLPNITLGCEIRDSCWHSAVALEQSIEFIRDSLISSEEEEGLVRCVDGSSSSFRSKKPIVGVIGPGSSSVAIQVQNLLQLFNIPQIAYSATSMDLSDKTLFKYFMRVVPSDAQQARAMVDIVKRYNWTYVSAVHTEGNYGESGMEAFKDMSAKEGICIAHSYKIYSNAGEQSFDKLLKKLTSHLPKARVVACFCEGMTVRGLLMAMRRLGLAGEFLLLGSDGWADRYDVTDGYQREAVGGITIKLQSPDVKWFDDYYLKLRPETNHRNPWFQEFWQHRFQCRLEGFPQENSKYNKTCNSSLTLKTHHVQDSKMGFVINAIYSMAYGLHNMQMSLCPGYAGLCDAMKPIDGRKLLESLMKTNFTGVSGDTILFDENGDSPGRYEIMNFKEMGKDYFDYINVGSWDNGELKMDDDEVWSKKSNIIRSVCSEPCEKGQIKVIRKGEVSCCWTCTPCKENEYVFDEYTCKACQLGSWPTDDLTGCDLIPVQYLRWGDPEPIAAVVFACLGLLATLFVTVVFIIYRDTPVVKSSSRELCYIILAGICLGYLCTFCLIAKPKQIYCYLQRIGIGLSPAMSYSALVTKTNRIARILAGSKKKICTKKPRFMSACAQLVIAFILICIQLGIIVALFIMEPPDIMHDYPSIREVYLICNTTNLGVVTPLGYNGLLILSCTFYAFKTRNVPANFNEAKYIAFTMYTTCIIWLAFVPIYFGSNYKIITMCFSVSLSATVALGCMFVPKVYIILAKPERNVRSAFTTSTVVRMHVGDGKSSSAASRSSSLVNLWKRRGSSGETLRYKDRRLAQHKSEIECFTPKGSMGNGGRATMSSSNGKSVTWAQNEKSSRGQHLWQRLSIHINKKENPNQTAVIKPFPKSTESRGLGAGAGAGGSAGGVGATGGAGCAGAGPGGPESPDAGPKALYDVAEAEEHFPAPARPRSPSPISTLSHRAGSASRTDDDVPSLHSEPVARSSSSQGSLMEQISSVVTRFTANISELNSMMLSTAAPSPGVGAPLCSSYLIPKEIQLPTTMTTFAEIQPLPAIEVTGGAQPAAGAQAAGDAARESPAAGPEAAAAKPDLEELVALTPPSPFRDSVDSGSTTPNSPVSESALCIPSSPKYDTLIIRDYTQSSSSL
Sequence of Metabotropic glutamate receptor 5 (Rattus norvegicus, UniProt P31424) (P31424 whole entry): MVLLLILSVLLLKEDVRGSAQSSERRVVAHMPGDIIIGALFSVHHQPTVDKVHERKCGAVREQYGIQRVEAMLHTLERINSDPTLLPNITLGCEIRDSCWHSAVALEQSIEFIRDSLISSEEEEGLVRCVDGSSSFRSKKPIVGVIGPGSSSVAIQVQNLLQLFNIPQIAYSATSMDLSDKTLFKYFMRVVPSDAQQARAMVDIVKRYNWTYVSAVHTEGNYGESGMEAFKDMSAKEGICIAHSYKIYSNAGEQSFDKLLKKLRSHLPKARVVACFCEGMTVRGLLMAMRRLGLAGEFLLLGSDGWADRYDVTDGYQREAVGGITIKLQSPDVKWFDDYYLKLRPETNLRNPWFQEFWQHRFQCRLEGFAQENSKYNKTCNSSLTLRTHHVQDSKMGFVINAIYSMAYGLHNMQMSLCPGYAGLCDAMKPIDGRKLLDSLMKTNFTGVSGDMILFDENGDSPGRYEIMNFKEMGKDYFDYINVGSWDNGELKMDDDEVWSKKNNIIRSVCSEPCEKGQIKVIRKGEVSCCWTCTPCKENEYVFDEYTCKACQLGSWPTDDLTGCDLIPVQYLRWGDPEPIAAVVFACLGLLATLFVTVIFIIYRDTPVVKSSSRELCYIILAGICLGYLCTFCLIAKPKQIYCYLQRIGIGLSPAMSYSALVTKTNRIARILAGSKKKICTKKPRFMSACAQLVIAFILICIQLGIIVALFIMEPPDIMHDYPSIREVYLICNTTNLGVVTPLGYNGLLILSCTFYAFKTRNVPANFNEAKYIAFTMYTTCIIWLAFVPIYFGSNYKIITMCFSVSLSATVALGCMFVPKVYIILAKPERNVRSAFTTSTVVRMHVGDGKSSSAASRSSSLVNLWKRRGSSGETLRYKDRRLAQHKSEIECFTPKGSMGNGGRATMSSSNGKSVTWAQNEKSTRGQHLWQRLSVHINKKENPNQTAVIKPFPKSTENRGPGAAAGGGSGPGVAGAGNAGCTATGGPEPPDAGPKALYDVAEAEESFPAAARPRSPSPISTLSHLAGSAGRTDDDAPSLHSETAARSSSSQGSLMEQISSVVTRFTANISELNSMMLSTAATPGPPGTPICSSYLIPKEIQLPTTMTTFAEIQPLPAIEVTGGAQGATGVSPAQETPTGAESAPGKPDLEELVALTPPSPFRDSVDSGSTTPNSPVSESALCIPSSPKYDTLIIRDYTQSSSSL

As to `CCN1CC(=O)N=C1NC(=O)Nc1cccc(Cl)c1`, the IC50 was determined as 250 nM in data set [1] (read-out: IC50) and 180 nM in data set [2].

As for `CN1CC(=O)N/C1=N\C(=O)Nc1ccccc1`, the IC50 in data set [1] (read-out: IC50) came out at 4900 nM. For `CN1CCC/C1=N\C(=O)Nc1cccc(Cl)c1`, the results for the IC50 in data set [1] (read-out: IC50) and in data set [2] were 620 nM and 2000 nM, respectively. On the same counts, the results for `Cc1cccc(NC(=O)NC2=NC(=O)C(c3ccccc3)N2C)c1` (stereo not given) are 1400 nM and more than 10000 nM. For `Cc1cccnc1NC(=O)NC1=NC(=O)CN1C`, the IC50 in data set [1] (read-out: IC50) is 1900 nM.

Take `CN1CC(=O)N=C1NC(=O)Nc1cccs1`: the IC50 in data set [1] (read-out: IC50) amounted to 4900 nM. The same measure, in the same setting: to `O=C(NC1=NC(=O)C2CCCN12)Nc1ccccc1` (stereo not given) belongs 4200 nM. On to `CN1CC(=O)N=C1NC(=O)Nc1cccc(Cl)c1` [FENOBAM ANHYDROUS], for which the CL in data set [3] and in data set [4] was 50 µL/min/mg throughout. Further, the IC50 turned out to be 330 nM in data set [1] (read-out: IC50) and 460 nM in data set [2]. As for `CCN1C(NC(=O)Nc2cccc(Cl)c2)=NC(=O)C1C` (stereo not given), the IC50 in data set [1] (read-out: IC50) came to 410 nM; in data set [2], 320 nM.

With `CN1C(=O)CN=C1NC(=O)Nc1cccc(Cl)c1`, the IC50 in data set [1] (read-out: IC50) and in data set [2] was more than 10000 nM throughout. With `Cc1ccc(NC(=O)NC2=NC(=O)CN2C)nc1`, in data set [1] (read-out: IC50), the IC50 came to 3100 nM. Consider `CN1CC(=O)N=C1NC(=O)Cc1cccc(Cl)c1`, for which the IC50 entry in data set [1] was “Not Active”. As for `CN1CC(=O)N=C1NC(=O)c1cccc(Cl)c1`, the IC50 in data set [1] (read-out: IC50) is 2300 nM. Same read-out and setting: to `Cc1ccccc1NC(=O)NC1=NC(=O)C2CCCN12` (stereo not given) belongs more than 10000 nM; to `O=C(NC1=NC(=O)C2CCCN12)Nc1ccc(Cl)cc1` (stereo not given), more than 10000 nM. With `CN1CC(=O)N=C1NC(=O)Nc1cccc(C#N)c1`, the concentration for half-maximal inhibition (IC50) in data set [1] (read-out: IC50) is 3900 nM; in data set [2], 3400 nM. On the same counts, the results for `Cn1ccnc1NC(=O)Nc1cccc(Cl)c1` are more than 10000 nM and more than 10000 nM.

With `Cc1cccc(NC(=O)NC2=NC(=O)CN2C)c1`, in data set [1] (read-out: IC50), the IC50 stood at 550 nM.

Turning to `Cc1cccc(C)c1NC(=O)/N=C1\CCCN1C` [XILOBAM], the 50% inhibitory concentration (IC50) in data set [1] (read-out: IC50) is more than 10000 nM.

Regarding `Cc1ccc(NC(=O)NC2=NC(=O)C3CCCN23)cc1Cl` (stereo not given), the IC50 in data set [1] (read-out: IC50) was more than 10000 nM. Same read-out and setting: to `Cc1cccc(NC(=O)NC2=NC(=O)C3CCCN23)c1C` (stereo not given) belongs more than 10000 nM. Take `CC1C(=O)N=C(NC(=O)Nc2cccc(Cl)c2)N1C` (stereo not given): the IC50 was determined as 490 nM in data set [1] (read-out: IC50) and 1300 nM in data set [2]. For `Cc1ccc(C)c(NC(=O)NC2=NC(=O)C3CCCN23)c1` (stereo not given), the IC50 in data set [1] (read-out: IC50) is more than 10000 nM. In the case of `O=C(NC1=NC(=O)C2CCCN12)Nc1cccc(Cl)c1` (stereo not given), the IC50 in data set [1] (read-out: IC50) stood at 800 nM; in data set [2], 1600 nM. For `COc1cccc(NC(=O)NC2=NC(=O)CN2C)c1`, the IC50 in data set [1] (read-out: IC50) was found to be 2800 nM. Still for that read-out and setting: to `CCCCCCNC(=O)NC1=NC(=O)CN1C` belongs more than 10000 nM; to `CN1CC(=O)N=C1NC(=O)Nc1cc(Cl)cc(Cl)c1`, more than 10000 nM; to `CN1CC(=O)N=C1NC(=O)Nc1cccc(Br)c1`, 380 nM. Take `CCCCN1CC(=O)N=C1NC(=O)Nc1cccc(Cl)c1`: the IC50 in data set [1] (read-out: IC50) was found to be 680 nM; in data set [2] it was 1300 nM. On the same counts, the results for `CN1CCS/C1=N\C(=O)Nc1cccc(Cl)c1` are 260 nM and 1200 nM.

As for `COC(=O)c1cccc(NC(=O)NC2=NC(=O)CN2C)c1`, in data set [1] (read-out: IC50), the IC50 was more than 10000 nM.
